In article PMC3006138, “Fexinidazole – A New Oral Nitroimidazole Drug Candidate Entering Clinical Development for the Treatment of Sleeping Sickness” (PLoS Neglected Tropical Diseases, 2010):
Values joined by “and” are separate entries in the source; they are usually repeats but may differ in a detail not shown here. Equal entries are not always repeated. Where two headings read alike, the source gives them in different places.

Experiments:
L-6 rat myoblast cells = test: Cytotoxicity assay; assay type: cell-based; conditions: 72 h, read-out: IC50
Protocol: (§1) 10 µL of Alamar Blue was added for the final 3 h to determine viability. […] The IC50 values were calculated from the sigmoidal inhibition curves. For cytotoxicity, 4×10^4/mL L-6 rat skeletal myoblast cells were used, and incubations and assessments carried out as above.

[1] = system: T. b. rhodesiense (STIB 900); test: In vitro trypanocidal assay (Alamar Blue); assay type: cell-based, Trypanosoma brucei rhodesiense
Protocol: as §1

[2] = system: T. b. gambiense (STIB 930); test: In vitro trypanocidal assay (Alamar Blue); assay type: cell-based, Trypanosoma brucei gambiense; conditions: Trypanosoma brucei, 72 h; read-out: IC50
Protocol: Parasites were cultured with or without the test article at a concentration of 3×10^4/mL in Minimal Essential Medium, according to Baltz et al., with the following modifications: 0.2 mM 2-mercaptoethanol, 1 mM Na-pyruvate, 0.5 mM hypoxanthine and 15% heat inactivated horse serum at 37°C in 5% CO2 in 96-well microtitre plates for 72 h. 10 µL of Alamar Blue was added for the final 3 h to determine viability. The assay was assessed by reading the fluorescence in each well at an excitation wavelength of 536 nm and at an emission wavelength of 588 nm. The IC50 values were calculated from the sigmoidal inhibition curves. For cytotoxicity, 4×10^4/mL L-6 rat skeletal myoblast cells were used, and incubations and assessments carried out as above.

in vivo = conditions: male, NMRI, mouse, po, 200 mg/kg/day
Protocol: The study was conducted according to the study protocol [1].
gavage daily for 5 consecutive days at a dose of 200 mg/kg in a 5 % tween 80/ 0.5 %
Formulation Preparation and Concentration Check
were prepared according to the procedure already developed [2]; a sufficient volume of each
suspension was prepared in order to support the 5-day repeated oral administration. The
suspensions were stored at +4°C. The supportive stability data for the Fexinidazole
suspension after 7 days at +4°C was performed.
a specific, not validated, HPLC-UV method [2]. Three samples were analyzed for each
Sample Collection and Handling
About 0.05-0.07 mL of blood/sampling time were taken from the saphenous vein using
heparinized tubes (pre-cooled in an ice/water bath) and were centrifuged at 10000g for 3
minutes at 4°C. The separated plasma was stored at -80°C until analysis. Blood was taken at
validated LC-MS-MS methods.
Pharmacokinetic Calculations
Pharmacokinetic evaluation was carried out using a non-compartmental approach with the
aid of the Watson package (v. 6.4.0.04, Thermo Fisher Scientific, Waltham, MA, USA).
For the calculations, pre-dose concentrations of both compounds were set equal to zero.
After both compounds, on Day 5, Cmax and tmax were read from the raw plasma data as the
coordinates of the highest measured concentration. The area under plasma concentration vs.
time curve to finite time, AUC0-t(last), was determined by the linear trapezoidal rule up to the
last detectable concentration. The half-life of the terminal phase, t1/2,z, was determined by
linear regression analysis of the natural-log concentration vs. time curve, where t1/2,z =
ln(2)/slope of the regression line.
Descriptive statistics (mean ± SD, %CV) were reported for plasma concentrations and
pharmacokinetic parameters sorted by compound.
reported to three significant figures.
Plasma concentrations of sulphoxide and sulphone Fexinidazole metabolites were determined
by a LC-MS-MS method. The lower limit of the bioanalytical method was 5 ng/mL (run 1)
(v. 6.4.0.04, Thermo Fisher Scientific, Waltham, MA, USA).
Pharmacokinetic evaluations of the sulphone and sulphoxide metabolites were carried out
using non-compartmental approach with the aid of the Watson package (v. 6.4.0.04, Thermo
Fisher Scientific, Waltham, MA, USA).
After both doses, for the calculations, the pre-dose concentrations of the metabolites were set
Cmax and tmax were read from raw data as the coordinates of the highest measured

rat liver cells = test: Ex vivo unscheduled DNA synthesis; assay type: in vivo; conditions: 75 mg/kg, positive control
Protocol: Groups of young male Sprague-Dawley rats received fexinidazole at doses of 500, 1000, or 2000 mg/kg orally, and the livers were sampled either 2–4 h or 12–14 h after administration. Hepatocyte suspensions were prepared and incubated in the presence of […] thymidine. Slides of fixed hepatocytes were coated in photographic emulsion and stored for 14 days at 4°C in the dark. The silver grains above the nuclei or cytoplasm (background) were counted, providing a measure of DNA uptake during DNA repair. The difference between these two counts indicated the extent of DNA repair (nuclear net grain count).

[3] = Trypanosoma brucei, 72 h; read-out: IC50

With `N=C(N)c1ccc(OCCCCCOc2ccc(C(=N)N)cc2)cc1` [Pentamidine] the IC50 (L-6 rat myoblast cells) was 3 µg/mL and 9 µM, the IC50 [1, 3] was 0.003 µg/mL and 9 nM and the IC50 [2] was 0.002 µg/mL and 10 nM.
With `CC1CS(=O)(=O)CCN1/N=C/c1ccc([N+](=O)[O-])o1` (stereo not shown) [Nifurtimox] the IC50 (L-6 rat myoblast cells) was 25 µg/mL and 87 µM, the IC50 ([1]; Trypanosoma brucei, 72 h, read-out: IC50) was 0.4 µg/mL and 1.44 µM and the IC50 [2] was 0.31 µg/mL and 1.08 µM. The AUC(0-t) (in vivo) was 45700 ± 5880 ng·h/mL, the Cmax (in vivo) was 9250 ± 765 ng/mL and the Tmax (in vivo) was 1.5 ± 1.32 h. The half-life (in vivo) was 3.12 ± 1.45 h.
In the case of `CC(=O)Nc1ccc2c(c1)Cc1ccccc1-2` [2-acetamidofluorene, reference compound], the “Net nuclear grain count (12–14 h)” value (rat liver cells) is reported as 9.8.
For `Cc1ccc(C(=O)Nc2ccc(S(=O)(=O)O)c3cc(S(=O)(=O)O)cc(S(=O)(=O)O)c23)cc1NC(=O)c1cccc(NC(=O)Nc2cccc(C(=O)Nc3cc(C(=O)Nc4ccc(S(=O)(=O)O)c5cc(S(=O)(=O)O)cc(S(=O)(=O)O)c45)ccc3C)c2)c1` [Suramin], the IC50 (L-6 rat myoblast cells) was > 90 µg/mL and > 70 µM and the IC50 [1, 3] was 0.062 µg/mL and 46 nM.
